Test results published in patent US20260028352A1, “MACROCYCLIC IMIDAZO [1,2-B] PYRIDAZINE DERIVATIVE, PREPARATION METHOD THEREFOR, AND USE THEREOF” (SUZHOU LANGRUI BIOPHARMACEUTICAL CO., LTD., priority 2022, published 2026).
Read-outs that look alike come from different tables or passages of the source.

Key:
[1] = ether bond
TRKA^WT kinase = TRKA^WT kinase (Homo sapiens (Human), UniProt P04629); assay: Inhibitory activity against TRKA WT kinase (Caliper mobility shift); format: biochemical; settings: in vitro kinase assay
In short: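 Kinase preincubated 10 min at room temperature with compound (10-point 3-fold series from 1000 nM), then reaction started with ATP and Kinase Substrate 22. Substrate conversion read by Caliper mobility shift; IC50 from variable-slope log(inhibitor)–response fit of % inhibition versus no-enzyme and no-compound controls.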

TRKA^F589L kinase = TRKA^F589L kinase (Homo sapiens (Human), UniProt P04629, F589L); assay: Inhibitory activity against TRKA(F589L) kinase (Caliper mobility shift); format: biochemical; settings: in vitro kinase assay
Experimental: Kinase Assay Process: 1× Kinase buffer was prepared. […] The compounds were serially diluted into 10 concentrations ([…], 0.15, and 0.05 nM) using a Precision 3-fold dilution method. By using the Echo550 liquid handler, 250 nL of the 100-fold final concentration compound was transferred to an OptiPlate-384F plate. a 2.5× final concentration kinase solution was prepared using 1× Kinase buffer. 10 μL of the 2.5× final concentration kinase solution was added to the compound wells and the positive control wells, and 10 μL of 1× Kinase buffer was added to the negative control wells. The plate was centrifuged at 1000 rpm for 30 seconds, vortexed for mixing, and then incubated at room temperature for 10 minutes. A mixture of 5/3× final concentration of ATP and Kinase Substrate 22 was prepared using 1× Kinase buffer. 15 μL of the mixture of the 5/3× final concentration ATP and the substrate was added to initiate the reaction, the 384-well plate was centrifuged at 1000 rpm for 30 seconds, vortexed for mixing, and incubated at room temperature for the required time. 30 μL of the termination solution was added to stop the kinase reaction, the plate was centrifuged at 1000 rpm for 30 seconds, and vortexed for mixing. The conversion rate was measured using the Caliper EZ Reader.
Data Analysis: the inhibition rate was calculated as follows:
% Inhibition=(Conversion %_max−conversion %_sample)÷(Conversion %_max−conversion %_min)×100
Conversion %_sample is the conversion rate reading for the sample; Conversion %_min is the average value of the negative control wells, representing the conversion rate for wells without enzyme activity: Conversion %_max is the average value of the positive control wells, representing the conversion rate for wells without compound inhibition. A dose-response curve was fitted using the log concentration of the compound as the X-axis and the percentage inhibition as the Y-axis. The log(inhibitor) vs. response-variable slope of the GraphPad Prism 5 software was used to fit the dose-response curve, and the IC50 value for each compound was obtained. The calculation formula is:
Y=Bottom+(Top−Bottom)/(1+10^((Log IC50−X)*HillSlope)).
wherein X represents the concentration of the compound to be tested; Y represents the inhibition rate at the concentration X: Top refers to the maximum response: Bottom refers to the baseline response; HillSlope refers to the slope of the curve (i.e., the gradient).

[2] = system: Ba/F3-TPM3-NTRK1-G667C cells; assay: Growth inhibition of Ba/F3-TPM3-NTRK1-G667C cells (Cell Titer-Glo); format: cell-based; settings: 72 hours, CTG; read-out: inhibitory activity IC50 Ba/F3-TPM3-NTRK1-G667C
In short: (§1)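 Ba/F3 cells were exposed for 72 hours to serially DMSO-diluted compound at a top final concentration of 10 μM. Viability was read by Cell Titer-Glo luminescence after the plate equilibrated 30 min at room temperature and was then shaken 1 hour in the dark at room temperature.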

[3] = system: Ba/F3-TPM3-NTRK1-G595R cells; assay: Growth inhibition of Ba/F3-TPM3-NTRK1-G595R cells (Cell Titer-Glo); format: cell-based; settings: 72 hours, CTG; read-out: inhibitory activity IC50 Ba/F3-TPM3-NTRK1-G595R
In short: as §1

[4] = system: Ba/F3-TPM3-NTRK1-WT cells; assay: Growth inhibition of Ba/F3-TPM3-NTRK1-WT cells (Cell Titer-Glo); format: cell-based; settings: 72 hours, CTG; read-out: inhibitory activity IC50 Ba/F3-TPM3-NTRK1-WT
In short: as §1

[5] = system: Ba/F3-TPM3-NTRK1-WT subcutaneous xenograft; assay: Efficacy in Ba/F3-TPM3-NTRK1-WT subcutaneous xenograft tumor model; format: in vivo, NOD-SCID mice
Experimental: Cell culture: Ba/F3-TPM3-NTRK1-WT cells were cultured in RPMI 1640 medium containing 10% FBS. Ba/F3-TPM3-NTRK1-WT cells in logarithmic growth phase were collected, the required total number of cells was calculated, and the cells were resuspended in a suitable volume of PBS mixture (PBS:Matrigel=1:1 (v/v)) with a cell suspension concentration of 5×106/0.1 mL for subcutaneous inoculation on the right side of NOD-SCID mice.
Method: On Day 0, all animals were subcutaneously inoculated with 0.1 mL (5×10^6 Ba/F3-TPM3-NTRK1-WT cells) of cell suspension (PBS:Matrigel=1:1, VN) on the right back. After the tumor growed to an average volume of 178.3 mm3, the mice were grouped and administrated. The average tumor volume of the enrolled animals is 178.3 mm^3. The mice were divided into two groups. Group-1 (Vehicle) and Group-2 (10 mg/kg, I-52). Each group consisted of 6 animals. All groups were administered orally by gavage with a frequency of BID, for a total of 29 days.
Tumor volume inhibition rate TGITV (%): TGI %=(1−ΔT/ΔC)×100%, wherein ΔC is the tumor volume Ct−C0 of the control group, C0 is the average tumor volume of the control group at the time of grouping, Ct is the average tumor volume of the control group after treatment, ΔT is the tumor volume Tt−T0 of the treatment group, T0 is the average tumor volume of the […] after treatment.
Pharmacological activity was evaluated based on tumor suppression rate (TGITV), and tolerance was evaluated based on changes in animal weight and mortality.

[6] = system: Ba/F3-TPM3-NTRK1-G667C subcutaneous xenograft; assay: Efficacy in Ba/F3-TPM3-NTRK1-G667C subcutaneous xenograft tumor model; format: in vivo, NOD-SCID mice; settings: 10 mg/kg oral BID
Experimental: Cell Culture: Ba/F3-TPM3-NTRK1-G667C cells were cultured in RPMI 1640 medium containing 10% FBS. Log-phase cells were collected, and the total number of cells required was calculated. Cells were resuspended in an appropriate volume of PBS mixture solution (PBS:Matrigel=1:1, v/v) at a concentration of 5×10^6 cells/0.1 mL for subcutaneous inoculation into the right flank of NOD-SCID mice.
Method: at Day 0, all animals were subcutaneously inoculated with 0.1 mL (5×10^6 cells) of Ba/F3-TPM3-NTRK1-G667C cell suspension (PBS:Matrigel=1:1, v/v) on the right flank. When the tumors reached an average volume of 197.2 mm^3, dosing and grouping began. […] The animals were divided into two groups: Group 1: Vehicle control; Group 2: 10 mg/kg of compound 1-52. Each group contained six mice. All groups were administered orally via gavage twice daily (BID) for 29 days.
Tumor Volume Inhibition Rate TGITV(%): TGI %=(1−ΔT/ΔC)×100%; Where: ΔC is the tumor volume Ct−C0 of the control group, C0 is the average tumor volume of the control group at the time of grouping, Ct is the average tumor volume of the control group after treatment, ΔT is the tumor volume Tt−T0 of the treatment group, To is the average tumor volume of the […] after treatment.
Pharmacological activity was evacuated based on tumor suppression rate (TGITV), and tolerance was assessed based on changes in animal weight and mortality.

TRKA^F589L kinase, sequence (P04629 33-796 F589L): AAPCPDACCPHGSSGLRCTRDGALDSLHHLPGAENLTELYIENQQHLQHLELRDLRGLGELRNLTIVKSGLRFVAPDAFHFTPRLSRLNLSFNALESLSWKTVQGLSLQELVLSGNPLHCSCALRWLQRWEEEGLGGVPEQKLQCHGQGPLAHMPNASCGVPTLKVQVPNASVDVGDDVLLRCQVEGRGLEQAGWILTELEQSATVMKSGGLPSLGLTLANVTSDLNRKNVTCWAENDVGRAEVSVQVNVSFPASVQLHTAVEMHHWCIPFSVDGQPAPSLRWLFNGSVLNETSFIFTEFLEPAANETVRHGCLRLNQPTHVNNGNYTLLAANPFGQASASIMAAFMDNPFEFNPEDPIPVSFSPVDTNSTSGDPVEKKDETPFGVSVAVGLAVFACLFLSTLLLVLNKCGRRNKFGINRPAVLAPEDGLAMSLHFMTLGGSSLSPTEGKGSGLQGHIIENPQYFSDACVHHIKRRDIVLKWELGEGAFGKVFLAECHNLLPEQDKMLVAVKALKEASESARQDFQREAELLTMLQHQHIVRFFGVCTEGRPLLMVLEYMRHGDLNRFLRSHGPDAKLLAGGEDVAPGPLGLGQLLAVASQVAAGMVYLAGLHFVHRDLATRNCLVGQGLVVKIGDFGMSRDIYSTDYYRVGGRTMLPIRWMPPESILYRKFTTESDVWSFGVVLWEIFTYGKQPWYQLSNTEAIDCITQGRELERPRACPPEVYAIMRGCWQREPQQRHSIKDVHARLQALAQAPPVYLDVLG
TRKA^WT kinase, sequence (P04629 33-796): as the sequence (P04629 33-796 F589L) above, with L557F counted along it

## CC1Nc2ccc3ncc(n3n2)-c2cc(ccn2)COc2ccc(F)cc21 (stereo not shown) [Example I-1, (E)-5^4-fluoro-6-methyl-4-oxa-7-aza-1(3,6)-imidazo[1,2-b]pyridazina-2(2,4)-pyridina-5(1,2)-benzenacycloheptaphane]
[1]; from CC(Nc1ccc2ncc(-c3cc(CO)ccn3)n2n1)c1cc(F)ccc1O, 13-membered ring, SOCl2, K2CO3, DCM/DMF, 15.2 mM, 90.0 °C, 2.0 h, 2 steps
  ring closure, isolated yield: 11.3%
TRKA^WT kinase
  IC50: 2.57 nM
TRKA^F589L kinase
  IC50: 5.4 nM
[2]
  IC50: 91.2 nM
[3]
  IC50: 72.2 nM
[4]
  IC50: 3.66 nM

## CC1Nc2ccc3ncc(n3n2)-c2cc(ccn2)COc2ncccc21 (stereo not shown) [Example I-4, (E)-6-methyl-4-oxa-7-aza-1(3,6)-imidazo[1,2-b]pyridazina-2(2,4), 5(2,3)-dipyridinacycloheptaphane]
[1]; from CC(Nc1ccc2ncc(-c3cc(CO)ccn3)n2n1)c1cccnc1O, 13-membered ring, SOCl2, K2CO3, DCM/DMF, 22.0 mM, 90.0 °C, 2.0 h, 2 steps
  ring closure, isolated yield: 30.2%
TRKA^WT kinase
  IC50: < 3 nM
TRKA^F589L kinase
  IC50: 5.8 nM
[2]
  IC50: < 100 nM

## CC1Nc2ccc3ncc(n3n2)-c2cc(ccn2)OCc2ncc(F)cc21 (stereo not shown) [Example I-12, (E)-5^5-fluoro-6-methyl-3-oxa-7-aza-1(3,6)-imidazo[1,2-b]pyridazina-2(2,4), 5(2,3)-dipyridinacycloheptaphane]
[1]; from CC(Nc1ccc2ncc(-c3cc(O)ccn3)n2n1)c1cc(F)cnc1CO, 13-membered ring, SOCl2, then K2CO3, DCM/DMF, then DMF (DCM evaporated), 15.7 mM, 90.0 °C, 2.0 h, 2 steps
  ring closure, isolated yield: 22.6%
[2]
  IC50: < 100 nM

## Fc1cnc2c(c1)[C@H]1C[C@H](F)CN1c1ccc3ncc(n3n1)-c1cc(ccn1)CO2 [Example I-52, (14bR,16S,E)-13,16-difluoro-14b,15,16,17-tetrahydro-9H-1,19-etheno-4,8-(metheno)imidazo[1,5-h]pyrido[2,3-b]pyrrolo[2,1-d][1]oxa[5,7,8,11]tetraazacyclopentadecine]
[2]
  IC50: 0.88 nM
[3]
  IC50: 0.3 nM
[4]
  IC50: 0.02 nM
[5]; Day 4, 10 mg/kg oral BID
  Average Tumor Volume: 182.5 mm^3
[5]; Day 6, 10 mg/kg oral BID
  Average Tumor Volume: 192.7 mm^3
[5]; Day 8, 10 mg/kg oral BID
  Average Tumor Volume: 176.5 mm^3
[5]; Day 10, 10 mg/kg oral BID
  Average Tumor Volume: 146.3 mm^3
[5]; Day 12, 10 mg/kg oral BID
  Average Tumor Volume: 113.1 mm^3
[5]; Day 14, 10 mg/kg oral BID
  Average Tumor Volume: 74.4 mm^3
[5]; Day 15, 10 mg/kg oral BID
  Average Tumor Volume: 67.9 mm^3
[5]; Day 17, 10 mg/kg oral BID
  Average Tumor Volume: 60.1 mm^3
[5]; Day 19, 10 mg/kg oral BID
  Average Tumor Volume: 32.8 mm^3
[5]; Day 21, 10 mg/kg oral BID
  Average Tumor Volume: 0.0 mm^3
[5]; Day 23, 10 mg/kg oral BID
  Average Tumor Volume: 0.0 mm^3
[5]; Day 25, 10 mg/kg oral BID
  Average Tumor Volume: 0.0 mm^3
[5]; Day 27, 10 mg/kg oral BID
  Average Tumor Volume: 0.0 mm^3
[5]; Day 29, 10 mg/kg oral BID
  TGITV: 112%
  Tumor Regression Rate: 100%
  Tumor Volume (average): 0.0 mm^3
[5]; Day 29, 10 mg/kg oral BID (Table 7)
  Average Tumor Volume: 0.0 mm^3
[6]; Day 2
  Average Body Weight: 19.1 g
[6]; Day 7
  Average Body Weight: 20.9 g
[6]; Day 9
  Average Body Weight: 21.0 g
[6]; Day 11
  Average Body Weight: 21.8 g
[6]; Day 13
  Average Body Weight: 22.0 g
[6]; Day 15
  Average Body Weight: 22.8 g
[6]; Day 17
  Average Body Weight: 23.0 g
[6]; Day 19
  Average Body Weight: 23.7 g
[6]; Day 21
  Average Body Weight: 23.3 g
[6]; Day 23
  Average Body Weight: 24.3 g
[6]; Day 25
  Average Body Weight: 24.7 g
[6]; Day 27
  Average Body Weight: 25.3 g
[6]; Day 29
  Average Body Weight: 24.6 g
  Relative Tumor Volume (average): 308.6%
  TGITV: 84%
  Tumor Volume (average): 636.5 mm^3

## (E)-4-methyl-6-oxa-3-aza-2(3,6)-imidazo [1,2-b]pyridazina-1(2,4)-pyridina-5(1,2)-benzenacyclooctaphane
[1]; 14-membered ring, PPh3/DIAD, THF, 15.8 mM, 60.0 °C
  ring closure, isolated yield: 18.4%
